Results taken from PMC11643077, “Synthesis of 1,2,4-Oxadiazin-5(6H)-One Derivatives and Their Biological Investigation as Monoamine Oxidase Inhibitors” (Molecules, 2024).

Key:
MAO-A [1] = molecular target: T1, MAO-A (Homo sapiens, UniProt P21397); assay: MAO-A inhibition, recombinant human enzyme, kynuramine substrate, fluorometric end-point; type: biochemical; conditions: mean ± SD of triplicate, racemic mixtures, NI = no inhibition at 100 µM
T1 construct: purchased Merck
T1 sequence (P21397 1-527): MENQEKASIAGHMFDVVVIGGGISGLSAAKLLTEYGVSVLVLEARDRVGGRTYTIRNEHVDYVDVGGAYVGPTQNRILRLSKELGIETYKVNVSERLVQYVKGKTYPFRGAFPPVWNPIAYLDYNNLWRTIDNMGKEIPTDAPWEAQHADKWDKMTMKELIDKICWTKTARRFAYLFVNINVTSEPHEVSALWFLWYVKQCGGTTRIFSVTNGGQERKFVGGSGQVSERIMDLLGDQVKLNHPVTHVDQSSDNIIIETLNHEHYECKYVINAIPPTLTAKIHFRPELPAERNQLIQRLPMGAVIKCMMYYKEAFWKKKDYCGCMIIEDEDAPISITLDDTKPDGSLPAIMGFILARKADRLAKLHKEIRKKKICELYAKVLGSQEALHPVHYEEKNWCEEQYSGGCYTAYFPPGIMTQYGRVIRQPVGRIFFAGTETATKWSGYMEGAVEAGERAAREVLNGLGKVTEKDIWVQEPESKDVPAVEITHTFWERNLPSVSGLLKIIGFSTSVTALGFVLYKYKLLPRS
Description: (§1) The in vitro inhibition studies were carried out according to the published procedure, and the inhibition potencies were expressed as the IC50 values (Figure 2). […] A variety of C3 substituents were explored in this study, which included the phenyl, benzyl and 5-methylthiophen-2-yl moieties, while different substituents on the phenyl (e.g., CH3, OCH3, Cl, Br, F, CF3, OCF3, NO2, PhO) were considered.
(§2) The inhibition potencies of the 1,2,4-oxadiazin-5(6H)-one derivatives were determined using commercially available recombinant human MAO-A and MAO-B (Merck) according to the published procedure. Stock solutions of all compounds were prepared in DMSO and added to the enzyme reactions to yield a final concentration of 4% DMSO. […] Kynuramine was used as enzyme substrate for both MAO isoforms and was oxidized to ultimately form 4-hydroxyquinoline, which is a fluorescent metabolite. The concentrations of 4-hydroxyquinoline in the reactions were measured at end-point by fluorescence spectrometry (λex = 310 nm; λem = 400 nm). Using this approach, the rates of kynuramine oxidation by MAO were measured in the presence of different concentrations of the test inhibitors (0.003–100 µM) as well as in the absence of inhibitor. […] IC50 values were estimated from these plots and were reported as the mean ± SD of triplicate determinations.

MAO-B = molecular target: T2, MAO-B (Homo sapiens, UniProt P27338); assay: MAO-B inhibition, recombinant human enzyme, kynuramine substrate, fluorometric end-point; type: biochemical; conditions: mean ± SD of triplicate, racemic mixtures, NI = no inhibition at 100 µM
T2 construct: purchased Merck
T2 sequence (P27338 1-520): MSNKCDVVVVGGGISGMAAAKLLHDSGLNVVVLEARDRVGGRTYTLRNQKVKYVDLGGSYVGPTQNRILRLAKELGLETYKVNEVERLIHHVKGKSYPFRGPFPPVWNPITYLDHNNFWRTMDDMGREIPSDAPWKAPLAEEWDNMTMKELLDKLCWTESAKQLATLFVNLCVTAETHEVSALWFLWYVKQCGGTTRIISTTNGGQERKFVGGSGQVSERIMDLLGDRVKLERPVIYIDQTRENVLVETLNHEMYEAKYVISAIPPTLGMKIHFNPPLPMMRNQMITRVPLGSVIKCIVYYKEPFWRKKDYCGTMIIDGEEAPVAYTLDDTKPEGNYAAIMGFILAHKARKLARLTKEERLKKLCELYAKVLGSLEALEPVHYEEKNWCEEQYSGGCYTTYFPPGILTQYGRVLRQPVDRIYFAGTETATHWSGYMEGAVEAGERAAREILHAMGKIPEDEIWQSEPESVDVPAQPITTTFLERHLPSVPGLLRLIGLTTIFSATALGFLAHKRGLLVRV
Description: as §1, §2

MAO-A [2] = molecular target: T1, MAO-A; assay: Mode of MAO-A inhibition, Lineweaver-Burk plots; type: biochemical
Description: To investigate the mode of MAO inhibition, Lineweaver–Burk plots were constructed for the two inhibitors of the respective MAO isoforms, 3f and 5f. For each inhibitor, six plots were constructed using a range of eight substrate concentrations (15–250 µM) for each plot. The inhibitor concentrations were selected to bracket the IC50 values. […] For each isoform, a plot was also constructed in the absence of the inhibitor.
To investigate the mode of inhibition, Lineweaver–Burk plots were constructed. A set of six plots were constructed for each test inhibitor using five inhibitor concentrations that bracketed the IC50 value as well as one plot in the absence of inhibitor. For each line, eight different concentrations of kynuramine (15–250 µM) were used. Subsequently, the slopes of the Lineweaver–Burk plots were plotted versus inhibitor concentration, and the Ki values were estimated from the x-intercept (Ki = −x-intercept).

Compound	IC50 (MAO-A [1])	melting point	IC50 (MAO-B)	mode of MAO-A inhibition (MAO-A [2]; Lineweaver-Burk plots)	Ki (MAO-A [2]; from replot of Lineweaver-Burk slopes versus inhibitor concentration (1 to 5 µM), kynuramine 15–250 µM)
O=C1CON=C(c2ccc(Br)cc2)N1 [Compound 3b, 3-(4-Bromophenyl)-4H-1,2,4-oxadiazin-5(6H)-one]	14.2 ± 0.94 µM		13.6 ± 6.63 µM		
Cc1ccc(C2=NOCC(=O)N2)s1 [Compound 3d, 3-(5-Methylthiophen-2-yl)-4H-1,2,4-oxadiazin-5(6H)-one]	34.6 ± 5.47 µM	216 to 218 °C	16.6 ± 1.67 µM		
COc1ccc(C2=NOCC(=O)N2)cc1 [Compound 3e, 3-(4-Methoxyphenyl)-4H-1,2,4-oxadiazin-5(6H)-one]	27.1 ± 3.98 µM	188 to 190 °C	37.6 ± 9.47 µM		
COc1ccc(Oc2ccc(C3=NOCC(=O)N3)cc2)cc1 [Compound 3f, 3-(4-(4-Methoxyphenoxy)phenyl)-4H-1,2,4-oxadiazin-5(6H)-one]	3.75 ± 0.212 µM		3.98 ± 0.518 µM	competitive inhibition	1300 nM
CCC1ON=C(c2ccc(C)s2)NC1=O (centres unmarked) [Compound 5d, 6-Ethyl-3-(5-methylthiophen-2-yl)-4H-1,2,4-oxadiazin-5(6H)-one]	58.1 ± 5.28 µM	151 to 153 °C	6.14 ± 0.137 µM		
CCC1ON=C(c2ccccc2)NC1=O (centres unmarked) [Compound 5g, 6-Ethyl-3-phenyl-4H-1,2,4-oxadiazin-5(6H)-one]	> 100 µM		> 100 µM		
CCC1ON=C(Cc2ccccc2)NC1=O (centres unmarked) [Compound 5i, 3-Benzyl-6-ethyl-4H-1,2,4-oxadiazin-5(6H)-one]	> 100 µM	97 to 99 °C	> 100 µM		
COC(=O)CC1ON=C(c2ccccc2)NC1=O (centres unmarked) [Compound 6a]	> 100 µM		> 100 µM		
COC(=O)CC1ON=C(c2ccccn2)NC1=O (centres unmarked) [Compound 6b]	34.2 ± 6.15 µM		23.6 ± 1.11 µM		
COC(=O)CC1ON=C(c2ccc(C)s2)NC1=O (centres unmarked) [Compound 6d]	40.7 ± 8.83 µM		33.9 ± 1.44 µM		
COC(=O)CC1ON=C(c2ccncc2)NC1=O (centres unmarked) [Compound 6e]	> 100 µM		> 100 µM		
Cc1ccc(C2=NOC(Cc3nc(-c4ccc(C)cc4)no3)C(=O)N2)cc1 (centres unmarked) [Compound 7a]	54.3 ± 14.3 µM				
O=C1NC(c2ccc(F)cc2)=NOC1Cc1nc(-c2ccc(F)cc2)no1 (centres unmarked) [Compound 7b]	> 100 µM		14.3 ± 3.27 µM		
O=C1NC(c2ccc([N+](=O)[O-])cc2)=NOC1Cc1nc(-c2ccc([N+](=O)[O-])cc2)no1 (centres unmarked) [Compound 7c]	12.9 ± 0.014 µM		0.371 ± 0.037 µM		
O=C1NC(c2ccc(C(F)(F)F)cc2)=NOC1Cc1nc(-c2ccc(C(F)(F)F)cc2)no1 (centres unmarked) [Compound 7d]	> 100 µM		46.3 ± 17.8 µM		
O=C(O)CC1ON=C(c2ccc(Oc3ccccc3)cc2)NC1=O (centres unmarked) [Compound 8b]	12.7 ± 1.34 µM		> 100 µM		
O=C(O)CC1ON=C(c2cc(Cl)cc(Cl)c2)NC1=O (centres unmarked) [Compound 8e]	> 100 µM		62.2 ± 15.7 µM		
O=C(O)CC1ON=C(c2cccc(Cl)c2)NC1=O (centres unmarked) [Compound 8f, 2-(3-(3-Chlorophenyl)-5-oxo-5,6-dihydro-4H-1,2,4-oxadiazin-6-yl)acetic acid]	> 100 µM	211 to 212 °C	> 100 µM		
O=C(O)CC1ON=C(c2ccc(OC(F)(F)F)cc2)NC1=O (centres unmarked) [Compound 8g, 2-(5-Oxo-3-(4-(trifluoromethoxy)phenyl)-5,6-dihydro-4H-1,2,4-oxadiazin-6-yl)acetic acid]	> 100 µM	208 to 211 °C	> 100 µM		
COc1ccc2c(c1)[nH]c1c(C)nccc12 [Harmine, reference compound]			> 100 µM		

Other lines, results leading:

IC50 (MAO-A [1])	melting point	IC50 (MAO-B)	mode of MAO-A inhibition (MAO-A [2]; Lineweaver-Burk plots)	Ki (MAO-A [2]; from replot of Lineweaver-Burk slopes versus inhibitor concentration (1 to 5 µM), kynuramine 15–250 µM)	Compound
36.8 ± 1.83 µM	140 to 141 °C	37.2 ± 0.071 µM			Cc1ccc(C2=NOCC(=O)N2)cc1 [Compound 3a, 3-(4-Methylphenyl)-4H-1,2,4-oxadiazin-5(6H)-one]
17.3 ± 0.594 µM	248 to 250 °C	24.4 ± 2.48 µM			O=C1CON=C(c2ccc([N+](=O)[O-])cc2)N1 [Compound 3c, 3-(4-Nitrophenyl)-4H-1,2,4-oxadiazin-5(6H)-one]
67 ± 0.007 µM		24.5 ± 0.198 µM			Cc1ccc(C2=NOC(C)C(=O)N2)cc1 (centres unmarked) [Compound 4a, 6-Methyl-3-(4-methylphenyl)-4H-1,2,4-oxadiazin-5(6H)-one]
37.4 ± 4.18 µM		27.1 ± 3.37 µM			CC1ON=C(c2ccc(Br)cc2)NC1=O (centres unmarked) [Compound 4b, 3-(4-Bromophenyl)-6-methyl-4H-1,2,4-oxadiazin-5(6H)-one]
58.5 ± 4.17 µM	247 to 249 °C	14.6 ± 0.092 µM			CC1ON=C(c2ccc([N+](=O)[O-])cc2)NC1=O (centres unmarked) [Compound 4c, 6-Methyl-3-(4-nitrophenyl)-4H-1,2,4-oxadiazin-5(6H)-one]
46.2 ± 9.22 µM	167 to 169 °C	22.3 ± 0.94 µM			Cc1ccc(C2=NOC(C)C(=O)N2)s1 (centres unmarked) [Compound 4d, 6-Methyl-3-(5-methylthiophen-2-yl)-4H-1,2,4-oxadiazin-5(6H)-one]
51.2 ± 15.1 µM		20 ± 0.643 µM			COc1ccc(C2=NOC(C)C(=O)N2)cc1 (centres unmarked) [Compound 4e, 3-(4-Methoxyphenyl)-6-methyl-4H-1,2,4-oxadiazin-5(6H)-one]
> 100 µM		4.28 ± 0.318 µM			CCC1ON=C(c2ccc(C)cc2)NC1=O (centres unmarked) [Compound 5a, 6-Ethyl-3-(4-methylphenyl)-4H-1,2,4-oxadiazin-5(6H)-one]
35.4 ± 1.54 µM		5.11 ± 0.308 µM			CCC1ON=C(c2ccc(Br)cc2)NC1=O (centres unmarked) [Compound 5b, 3-(4-Bromophenyl)-6-ethyl-4H-1,2,4-oxadiazin-5(6H)-one]
57.9 ± 9.84 µM	177 to 179 °C	21 ± 4.09 µM			CCC1ON=C(c2ccc([N+](=O)[O-])cc2)NC1=O (centres unmarked) [Compound 5c, 6-Ethyl-3-(4-nitrophenyl)-4H-1,2,4-oxadiazin-5(6H)-one]
44.1 ± 6.05 µM	139 to 141 °C	6.22 ± 0.596 µM			CCC1ON=C(c2ccc(OC)cc2)NC1=O (centres unmarked) [Compound 5e, 6-Ethyl-3-(4-methoxyphenyl)-4H-1,2,4-oxadiazin-5(6H)-one]
93 ± 3.23 µM	153 to 155 °C	30.7 ± 2.02 µM			CCC1ON=C(c2ccc(F)cc2)NC1=O (centres unmarked) [Compound 5h, 6-Ethyl-3-(4-fluorophenyl)-4H-1,2,4-oxadiazin-5(6H)-one]
> 100 µM		52.3 ± 12.7 µM			COC(=O)CC1ON=C(c2ccc([N+](=O)[O-])cc2)NC1=O (centres unmarked) [Compound 6c]
> 100 µM		22.9 ± 5.27 µM			COC(=O)CC1ON=C(c2ccc(C(F)(F)F)cc2)NC1=O (centres unmarked) [Compound 6f]
> 100 µM					Cc1ccc(C2=NOC(CC(=O)O)C(=O)N2)cc1 (centres unmarked) [Compound 8a]
> 100 µM		> 100 µM			COc1ccc(C2=NOC(CC(=O)O)C(=O)N2)cc1 (centres unmarked) [Compound 8c]
> 100 µM		> 100 µM			O=C(O)CC1ON=C(c2ccc(C(F)(F)F)cc2)NC1=O (centres unmarked) [Compound 8d]
